Test results from PMC6562610, “Inhibition of Hedgehog Signaling in Fibroblasts, Pancreatic, and Lung Tumor Cells by Oxy186, an Oxysterol Analogue with Drug-Like Properties” (Cells, 2019).
“Also recorded” adds a separate entry of the source.

Experiments:
[1] = test system: Gli1 expression in H2030 cells; assay: Inhibition of Gli1 expression in H2030 cells, Q-RT-PCR; format: cell-based, human; details: 10 µM, 72 h
Source text: (§1) NIH3T3-E1 fibroblasts were obtained from ATCC (Manassas, VA) and cultured, as previously described. CAPAN-1 and PANC-1 human pancreatic cancer cells were obtained from ATCC and cultured in Dulbecco’s Modified Eagle Medium (DMEM) containing 10% heat-inactivated fetal bovine serum (FBS) (Hyclone Laboratories, Logan, UT, USA) and antibiotics, as previously described. The human lung cancer cell lines A549 and H2030 were obtained from ATCC and cultured in RPMI-1640 containing 10% FBS. The human hepatoma cell line HepG2 was obtained from ATCC and cultured in DMEM containing 10% FBS. Mouse embryonic fibroblasts (MEFs) from suppressor of fused (Sufu) null mice (Sufu^−/−) were provided by Dr. Philip Beachy of Stanford University and cultured in DMEM containing 10% FBS. Gant61, SB431542 and vismodegib (GDC0449) were obtained from Cayman Chemical, HPI-1 was obtained from Abcam. For experiments, cells were treated in a medium containing 5% FBS.
(§2) Total RNA was extracted with the RNeasy Plus Mini Kit from Qiagen, according to the manufacturer’s instructions. One microgram of RNA was reverse-transcribed using an iScript Reverse Transcription Supermix from Bio-Rad, to make single-stranded cDNA. The cDNAs were then mixed with Qi SYBR Green Supermix (Bio-Rad, Hercules, CA, USA) for quantitative RT-PCR assay using a Bio-Rad I-cycler IQ quantitative thermocycler. All PCR samples were prepared in triplicate wells in a 96-well plate. […] Fold changes in gene expression were calculated using the ΔΔCt method. […]
(§3) Figure 4 Inhibition of Gli and Shh expression in (a) PDAC (PANC-1) and (b,c) human lung cancer cells (A549 and H2030, respectively) by Oxy186. Cells were treated with the compounds as indicated in DMEM or RPMI 1640 containing 5% FBS for (a) 48 or (b,c) 72 hours, then RNA was extracted and analyzed by Q-RT-PCR for the expression of Gli1 and normalized to GAPDH expression. (d) CAPAN-1 cells were treated with the compounds, as indicated, in DMEM containing 5% FBS for 72 h, then RNA was extracted and analyzed by Q-RT-PCR for the expression of Shh and normalized to GAPDH expression. […]

[2] = test system: Shh expression in CAPAN-1 cells; assay: Inhibition of Shh expression in CAPAN-1 cells, Q-RT-PCR; format: cell-based, human; details: 72 h
Source text: as §1, §2, §3

[3] = test system: Hh pathway target genes Gli1, Ptch1, and Hip in Sufu-/- mouse embryonic fibroblasts; assay: Inhibition of Hh target gene expression in Sufu-/- MEFs, Q-RT-PCR; format: cell-based; details: 10 µM, 72 h
Source text: as §1, with “Gant61, SB431542 and vismodegib (GDC0449) were obtained from Cayman Chemical, HPI-1 was obtained from Abcam. For experiments, cells were treated in a medium containing 5% FBS.” left out
Total RNA was extracted with the RNeasy Plus Mini Kit from Qiagen, according to the manufacturer’s instructions. […] The cDNAs were then mixed with Qi SYBR Green Supermix (Bio-Rad, Hercules, CA, USA) for quantitative RT-PCR assay using a Bio-Rad I-cycler IQ quantitative thermocycler. […] Fold changes in gene expression were calculated using the ΔΔCt method. […]
Figure 5 Oxy186 acts downstream of Smo. […] After 72 h, RNA was extracted and analyzed by Q-RT-PCR for the expression of Hh target genes Gli1, Ptch1, and Hip, normalized to Oaz1 expression. […] Luciferase activity was measured and normalized to the Renilla luciferase activity. […]

[4] = test system: Gli1 transcriptional activity in NIH3T3-E1 cells; assay: Gli responsive luciferase reporter trans-activated by exogenous Gli1; format: cell-based, mouse; details: 72 h
Method: NIH3T3-E1 and Sufu^−/− cells cultured in 24-well plates at 90% confluence were transiently transfected with 0.1 µg of Gli response-element reporter (pGL3b-8xGli-Luciferase) plasmid, and 10 ng of pTK-Renilla-Luciferase plasmid with or without co-transfection with 10 ng of Gli1 overexpression vector, pSRα-Gli1, as previously described using Lipofectamine LTX Plus transfection reagent (Invitrogen). Twenty-four h after transfection, cells were treated with test agents for 72 h. Then the firefly and Renilla luciferase activities were measured using a dual luciferase kit (Promega, Madison, WI, USA) and a GloMax-96 Microplate Luminometer. The firefly luciferase activities were normalized to the Renilla luciferase activities. Data are reported as the mean of triplicate determinations ± SD.
Figure 5 Oxy186 acts downstream of Smo. (a) Sufu^−/− mouse embryonic fibroblast (MEF) cells were treated with DMEM containing 10% FBS in the presence or absence of Oxy186 (10 µM). After 72 h, RNA was extracted and analyzed by Q-RT-PCR for the expression of Hh target genes Gli1, Ptch1, and Hip, normalized to Oaz1 expression. […] Luciferase activity was measured and normalized to the Renilla luciferase activity. […]

[5] = test system: LXR target gene Abca1; assay: Induction of LXR target gene Abca1 in NIH3T3 cells, Q-RT-PCR; format: cell-based, mouse
Method: Total RNA was extracted with the RNeasy Plus Mini Kit from Qiagen, according to the manufacturer’s instructions. One microgram of RNA was reverse-transcribed using an iScript Reverse Transcription Supermix from Bio-Rad, to make single-stranded cDNA. The cDNAs were then mixed with Qi SYBR Green Supermix (Bio-Rad, Hercules, CA, USA) for quantitative RT-PCR assay using a Bio-Rad I-cycler IQ quantitative thermocycler. All PCR samples were prepared in triplicate wells in a 96-well plate. After 40 cycles of PCR, melt curves were examined in order to ensure primer specificity. Fold changes in gene expression were calculated using the ΔΔCt method. Primers used for mouse were as follows: Oaz1 (5’-CCACTGCTTCGCCAGAGAG-3’) and (5’-CCCGGACCCAGGTTACTA-3’), Gli1 (5’-[…]-3’ and 5’-[…]-3’), Ptch1 (5’-CCATCGGCGACAAGAACC-3’ and 5’-[…]-3’), Hip (5’-[…]-3’ and 5’-[…]-3’), and Abca1 (5’-[…]-3’ and 5’-[…]-3’). Primers used for human were as follows: SREBP1c (5’-CGCTCCTCCATCAATGACA-3’ and 5’-[…]-3’), GAPDH (5’-[…]-3’ and 5’-[…]-3’), SHH (5’-CGGAGCGAGGAAGGGAAAG-3’) and (5’-[…]-3’), and GLI1 (5’-GAAGCCGAGCCGAGTATC-3’ and 5’-[…]-3’).
Figure 7 Induction of LXR target gene expression by Oxy186 and LXR agonist TO901317 (TO). (a) NIH3T3 cells and (b) HepG2 cells were treated with DMEM containing 5% FBS in the presence or absence of TO (2 µM) or Oxy186 (10 µM). […] Data from a representative experiment are reported as the mean of triplicate determinations ± SD (** p < 0.01 vs. control).

SMILES: C[C@]12CC[C@H](O)C[C@@H]1CC[C@@H]1[C@@H]2CC[C@@]2(C)[C@H]1CC[C@@H]2[C@](C)(O)CCc1ccc(F)cc1 [Oxy186, (3S,5S,8R,9S,10S,13S,14S,17S)-17-((R)-4-(4-fluorophenyl)-2-hydroxybutan-2-yl)-10,13-dimethylhexadecahydro-1H-cyclopenta[a]phenanthren-3-ol]
- Inhibition of expression of Gli1 [1]: significantly inhibited
- Inhibition of Shh expression [2]: robustly inhibited; also recorded: significant inhibition
- Inhibition of high baseline expression of Hh pathway target genes Gli1, Ptch1, and Hip [3]: significant inhibition
- Inhibition of Gli responsive luciferase reporter trans-activated by over expressed exogenous Gli1 [4]: significantly inhibited
- LXR agonism (Figure 8b summary) ([5]; Figure 8b drug-like properties summary): Weak LXR agonist
- Induction of expression of LXR target gene Abca1 ([5]; NIH3T3-E1 cells, up to 10 µM): only modestly induced
